Assay results from article PMC12655682, “Screening-Identified Oxazole-4-Carboxamide KB-2777 Exhibits In Vitro Anti-Coronavirus Activity” (Pharmaceutics, 2025).
pEC50: −log10 of the molar value. Entries after “also recorded” stand apart in the source; their conditions may differ. Like-named read-outs stand apart in the source and are kept apart here.

Assays:
HCoV-NL63 [1] = assay: Extracellular viral RNA by RT-qPCR of supernatants, HCoV-NL63/LLC-MK2; assay type: cell-based, Human coronavirus NL63
Description: […] Viral RNA was extracted using the QIAamp Viral RNA Mini Kit (Qiagen, Hilden, Germany)according to the manufacturer’s instructions and quantified by one-step RT-qPCR on a real-time thermocycler.
EC50 values were determined from concentration–response curves generated by 2-fold serial dilutions, with at least four concentration points per curve. Each measurement was performed in triplicate technical replicates. Unless otherwise indicated, data are presented as mean ± SEM from three independent biological experiments (n = 3).
For absolute quantification, synthetic DNA (oligonucleotide) standards corresponding to the NL63, OC43, and PEDV amplicons were used. Ten-fold serial dilutions were prepared to generate standard curves. Ct values were interpolated against the curves to obtain gene copies per reaction and converted to genome copies per mL by accounting for extraction and elution volumes and the qPCR input volume.

HCoV-NL63 [2] = assay: Time-of-addition, CPE-based cell protection (EZ-Cytox), HCoV-NL63/LLC-MK2; parameters: species or system Human coronavirus NL63; details: HCoV-NL63, 5 µM and 20 µM, 48 h post-infection
Description: For antiviral activity, cells in 96-well plates were infected and treated with test compounds as indicated and incubated for 48–72 h. Cell viability was quantified by WST (EZ-Cytox) at 450 nm on the same reader. Cytoprotective effect was calculated by normalizing to infected DMSO controls and converting to percent protection: % Protection = ((V_drug + virus − V_virus-only)/(V_mock − V_virus-only)) × 100. […]
Unless otherwise specified, infections were carried out at 100 TCID50 per well with 1 h adsorption at 37 °C, and compounds were used at 20 µM. Primary readout was S protein IFA at 48 h; EZ-Cytox and TCID50 at 48 h for the same regimens are provided in Supplementary Data (Figures S14 and S15). […]
Cell protection (%) was calculated relative to the DMSO control. […] (b) Infectious progeny released under the same TOA conditions, quantified as log10(TCID₅₀/mL) from culture supernatants (see Methods). […]
Figure S15. […] Cell protection (%) was calculated relative to the DMSO control. […]
Statistics: one-way ANOVA with Dunnett’s multiple comparisons vs DMSO; *P<0.05, **P<0.01, ***P<0.001, ****P<0.0001. (b) Infectious progeny released under the same TOA conditions, quantified as log₁₀(TCID₅₀/mL) from culture supernatants by endpoint dilution on Vero E6 indicator cells (Spearman–Kärber method; see Methods). […]

[3] = system: IL6, ISG15, IFNB1, NQO1, HMOX1 (HO-1), GCLM, DDIT3 (CHOP), ATF4, XBP1 transcripts; assay: Targeted host-response transcript profiling (two-step RT-qPCR) in MRC-5 cells; assay type: cell-based, human; details: n = 3
Description: Total RNA was isolated using the RNeasy kit (QIAGEN, Hilden, Germany) according to the manufacturer’s instructions. cDNA was synthesized with the Tetro cDNA Synthesis Kit (Meridian Bioscience, Memphis, TN, USA) following the manufacturer’s protocol. Quantitative PCR was performed using Luna Universal qPCR Master Mix, SYBR (New England Biolabs, Ipswich, MA, USA). Target genes included IL6, ISG15, IFNB1, NQO1, HMOX1 (HO-1), GCLM, DDIT3 (CHOP), ATF4, and XBP1; primer sequences are listed in Table S3. ACTB served as the internal control. Expression changes were calculated as −ΔΔCt (log2 fold change) relative to time-matched calibrators (OC43 only for infected comparisons; DMSO for uninfected). Each condition included n = 3 biological replicates. At each time point, data were analyzed independently in GraphPad Prism 10.1.2 (GraphPad Software, San Diego, CA, USA) using an ordinary two-way ANOVA with factors gene (9 levels) and treatment (2 levels). Significance marks reflect within-gene simple-effects comparisons (treatment) with Tukey’s multiple-comparisons adjustment (two-tailed, α = 0.05). Time was not included as a factor; no inferences were made across time points.

[4] = system: HCoV-NL63-infected LLC-MK2 cells; assay: Propidium iodide (PI) live/dead imaging in HCoV-NL63/LLC-MK2; assay type: cell-based, rhesus monkey; details: 20 µM post-treatment, 48 h post-infection, vs virus + DMSO, p < 0.01
Description: Cells were infected as in the immunofluorescence assay (IFA) and were post-treated with KB-2777 (20 µM, DMSO ≤ 0.1%). At 48 h post-infection, cells were stained live with PI (approximately 1 µg/mL, 30 min) and were immediately imaged (PI/Hoechst). For each field, we counted total nuclei (Hoechst), NL63 S-positive cells, PI-positive cells, and double-positive (S∩PI) cells. Outcomes were % PI^+/Total and % PI^+ among infected cells (PI^+/NL63 S^+). […] Statistics used the Mann–Whitney U test (two-tailed).

**Q.** COc1cccc(-c2oc(-c3ccc(C(F)(F)F)cc3)nc2C(=O)NCC2CC2)c1 [KB-2777, N-(cyclopropylmethyl)-5-(3-methoxyphenyl)-2-(4-(trifluoromethyl)phenyl)Oxazole-4-Carboxamide] was tested. Which “inhibition of viral RNA at 24 h” value (HCoV-NL63 [1]; HCoV-NL63, post-treatment regimen, 24 h post-infection, 0–25 µM) did it give?
**A.** minimal

**Q.** What about the pEC50 (HCoV-NL63 [1]; Human coronavirus NL63, LLC-MK2, HCoV-NL63, post-treatment regimen, 48 h post-infection, read-out: EC50 (viral RNA, RT-qPCR) at 48 h) of the same compound?
**A.** 5.62

**Q.** And the pEC50 (HCoV-NL63 [1]; Human coronavirus NL63, LLC-MK2, HCoV-NL63, post-treatment regimen, 72 h post-infection, read-out: EC50 (viral RNA, RT-qPCR) at 72 h)?
**A.** 5.28

**Q.** What about the pEC50 (HCoV-NL63 [1]; Human coronavirus NL63, HCoV-NL63/LLC-MK2, 72 h post-infection, n = 3, read-out: EC50 (viral RNA, RT-qPCR)) of the same compound?
**A.** 5.28

**Q.** And the “CPE-based cell protection across TOA regimens” value (HCoV-NL63 [2])?
**A.** reproduced this pattern

**Q.** What about the “host-response transcripts (−ΔΔCt) in infected cells” value ([3]; OC43-infected MRC-5, OC43 + KB-2777 vs OC43 alone, time-matched) of the same compound?
**A.** attenuated IL6, IFNB1, ISG15, and selected UPR transcripts; also recorded: attenuated these transcriptional responses

**Q.** And the “host-response transcripts (−ΔΔCt) in uninfected cells” value ([3]; uninfected MRC-5, KB-2777 alone vs DMSO)?
**A.** changes were limited and transient

**Q.** What about the “% PI+ among infected cells (PI+/NL63 S+)” value [4] of the same compound?
**A.** reduces

**Q.** And the “% PI+/Total cells” value [4]?
**A.** reduces
